# In patent publication US11192900B2, “Substituted 1,6-dihydropyridinones and 1,2-dihydroisoquinolinones as bet inhibitors” (NUVATION BIO INC., priority 2018, dated 2021):
# Like-named read-outs stand apart in the source and are kept apart here.
# How the values were obtained:
# [1] = system: 22Rv1 cells; test: 22Rv1 cell proliferation assay with wash-off or mock wash-off; type: cell-based, human; conditions: Homo sapiens
# Protocol: A 22Rv1 cell proliferation assay was used to assess durability of test compound effects after transient exposure of test compound to cells. 22Rv1 cells were seeded at 3000 cells per well/100 μl in a 96-well plate and incubated with test compounds at specified dilutions for 2 hr at 37° C. and 5% CO2. Following the incubation, test compound was washed off and replacement culture medium without test compound was added. Wash-off was performed by three PBS washes. The cells were incubated for an additional 96 hr at 37° C. and 5% CO2. In parallel, a mock wash-off was performed with cells that were treated identically except that the replacement culture medium contained test compound. The plate was incubated for 4 hr at 37° C., 5% CO2 and fluorescence was measured using excitation and emission wavelengths of 535 and 590 nm, respectively. Cell viability data were plotted using GraphPad Prism (GraphPad Software, Inc., San Diego, Calif.). In addition, a nonlinear regression model with a sigmoidal dose response and variable slope within GraphPad Prism was used to calculate the IC50 value of individual test compounds.
# [2] = target: BRD3-1 (Homo sapiens (Human), UniProt Q15059); test: Bromodomain and Extraterminal Domain (BET) Binding Assay
# Sequence of BRD3-1 (Q15059 34-140): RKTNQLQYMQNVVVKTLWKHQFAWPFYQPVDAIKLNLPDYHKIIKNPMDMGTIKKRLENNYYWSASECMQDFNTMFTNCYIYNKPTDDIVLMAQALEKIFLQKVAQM
# Outline: (§1)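 AlphaScreen displacement of biotinylated H4 (1-21) K5/8/12/16Ac peptide, in 50 mM HEPES pH 7.5, 100 mM NaCl, 1 mg/ml BSA, 0.05% CHAPS, 0.5% DMSO. Protein-compound preincubation 30 min RT, then ligand 30 min, donor then acceptor beads 60 min dark. Inhibition versus plate controls; IC50 from 10-point titrations.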
# [3] = target: BRD4-1 (Homo sapiens (Human), UniProt O60885); test: as above
# Outline: as §1
# [4] = target: BRDT-1 (Homo sapiens (Human), UniProt Q58F21); test: as above
# Outline: as §1
# [5] = target: BRD3-2 (Homo sapiens (Human), UniProt Q15059); test: as above
# Sequence of BRD3-2 (Q15059 306-415): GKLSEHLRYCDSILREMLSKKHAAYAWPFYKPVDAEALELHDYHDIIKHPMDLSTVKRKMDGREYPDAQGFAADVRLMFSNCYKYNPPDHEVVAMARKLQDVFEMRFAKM
# Outline: as §1
# [6] = target: BRD2-1 (Homo sapiens (Human), UniProt P25440); test: as above
# Sequence of BRD2-1 (P25440 74-180): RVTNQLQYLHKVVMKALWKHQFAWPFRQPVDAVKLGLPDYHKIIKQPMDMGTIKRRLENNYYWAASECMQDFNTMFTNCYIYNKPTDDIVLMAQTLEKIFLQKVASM
# Outline: as §1
structure (smiles),measurement,setting,value
"C=CS(=O)(=O)Nc1ccc(Oc2ccc(F)cc2F)c(-c2cc(NC)c(=O)n(C)c2)c1 [Compound 3, N-(4-(2,4-difluorophenoxy)-3-(1-methyl-5-(methylamino)-6-oxo-1,6-dihydropyridin-3-yl)phenyl)ethenesulfonamide]",IC50,"[1]; 22Rv1, 2 hr exposure, three PBS washes, additional 96 hr without compound, read-out: Wash-off IC50",96 nM
same,IC50,"[1]; 22Rv1, 2 hr, replacement medium with test compound, additional 96 hr, read-out: Mock wash-off IC50",342 nM
same,IC50,[2],35 nM
same,IC50,"[3]; Table 2, read-out: BET IC50 BRD4-1",24 nM
same,IC50,"[3]; Table 3, read-out: BRD4-1 IC50",24 nM
same,IC50,[4],31 nM
same,IC50,[5],29 nM
same,IC50,[6],16 nM
